Assay [1] deals with T1, Recombinant (1-346) HPK1 (h) (Homo sapiens, UniProt Q92918).
T1 construct: Recombinant (1-346) HPK1 (h) is incubated with 8 mM MOPS pH 7.0
T1 sequence (Q92918 1-346): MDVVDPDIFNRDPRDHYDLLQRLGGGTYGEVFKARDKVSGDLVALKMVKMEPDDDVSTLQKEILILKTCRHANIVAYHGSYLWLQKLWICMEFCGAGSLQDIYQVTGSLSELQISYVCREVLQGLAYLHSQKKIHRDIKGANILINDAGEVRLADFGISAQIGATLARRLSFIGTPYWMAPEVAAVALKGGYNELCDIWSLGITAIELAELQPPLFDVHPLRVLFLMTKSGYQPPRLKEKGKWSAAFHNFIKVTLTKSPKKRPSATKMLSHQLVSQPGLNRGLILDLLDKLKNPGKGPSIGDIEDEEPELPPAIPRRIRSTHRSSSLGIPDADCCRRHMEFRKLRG
The assay is described as follows: HPK1 Human STE Kinase Enzymatic Radiometric Assay. The note with it: [gamma-33P]-ATP, myelin basic protein substrate, read-out: HPK1 IC50 nM Range*. The assay is classed as biochemical. As for the experimental part: (a) HPK1 Human STE Kinase Enzymatic Radiometric Assay
A stock solution of 10 mM of test compound is prepared in DMSO. The compound plate was prepared by 3-fold and 9-point serial dilutions. Recombinant (1-346) HPK1 (h) is incubated with 8 mM MOPS pH 7.0, 0.2 mM EDTA, 0.33 mg/mL myelin basic protein, 10 mM MgAcetate and [gamma-33P]-ATP (specific activity and concentration as required). The reaction is initiated by the addition of the Mg/ATP mix. After incubation for 40 minutes at RT, the reaction is stopped by the addition of phosphoric acid to a concentration of 0.5%. 10 uL of the reaction is then spotted onto a P30 filtermat and washed four times for 4 minutes in 0.425% phosphoric acid and once in methanol prior to drying and scintillation counting. For more details of kinase assay protocols, see: Gao, Y. et. al.; Biochem J. 451 (2): 313-328, 2013.

In a further assay the target is Lck (h) (Homo sapiens, UniProt P06239). Kind of assay: Lck Human STE Kinase Enzymatic Radiometric Assay. The assay is classed as biochemical. The note with it: for IC50: radiometric, [gamma-33P]-ATP, Cdc2 peptide substrate, read-out: Lck IC50, nM Range*; for Selectivity: selectivity for inhibition of HPK1 vs Lck. The method, then:
(b) Lck Human STE Kinase Enzymatic Radiometric Assay
Lck (h) is incubated with 50 mM Tris pH 7.5, 0.1 mM EGTA, 0.1 mM Na3VO4, 250 uM KVEKIGEGTYGVVYK (Cdc2 peptide), 10 mM MgAcetate and [gamma-33P]-ATP (specific activity and concentration as required). The reaction is initiated by the addition of the Mg/ATP mix. After incubation for 40 minutes at room temperature, the reaction is stopped by the addition of phosphoric acid to a concentration of 0.5%. 10 uL of the reaction is then spotted onto a P30 filtermat and washed four times for 4 minutes in 0.425% phosphoric acid and once in methanol prior to drying and scintillation counting. For more details on the kinase assay procedures see: Gao, Y. et. al.; Biochem J., 451 (2): 313-328, 2013.
In some embodiments the presence of substituents on monocyclic Cy^2 rings or when Cy^2 is a bicyclic ring (unsubstituted or substituted) provides compounds with improved selectivity for inhibition of HPK1 vs Lck (see, for example, Table 3 and Table 4).

Sequence of Lck (h) (P06239 whole entry): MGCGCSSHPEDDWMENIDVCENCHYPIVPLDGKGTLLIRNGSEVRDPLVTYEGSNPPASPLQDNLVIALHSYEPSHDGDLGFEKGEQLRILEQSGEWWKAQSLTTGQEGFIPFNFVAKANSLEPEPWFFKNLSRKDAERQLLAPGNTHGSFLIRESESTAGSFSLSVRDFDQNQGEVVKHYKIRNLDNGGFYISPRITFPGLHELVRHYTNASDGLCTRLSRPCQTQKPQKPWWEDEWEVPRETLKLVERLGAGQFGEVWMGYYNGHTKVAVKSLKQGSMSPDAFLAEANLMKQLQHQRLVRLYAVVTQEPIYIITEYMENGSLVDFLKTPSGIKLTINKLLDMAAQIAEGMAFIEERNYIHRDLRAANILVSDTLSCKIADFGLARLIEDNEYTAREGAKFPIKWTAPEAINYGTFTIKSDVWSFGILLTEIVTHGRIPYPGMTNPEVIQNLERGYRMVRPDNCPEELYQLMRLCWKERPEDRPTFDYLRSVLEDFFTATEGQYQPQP

A word on the IC50: it is the concentration at which inhibition is half-maximal. Turning to `Nc1ncc(-c2ccc([C@]34C[C@H]3CN(C3CC3)C4)cc2)nc1-c1cc2c(cc1F)C(=O)NCC2` [Example I-52, 6-(3-amino-6-(4-((1S,5R)-3-cyclopropyl-3-azabicyclo[3.1.0]hexan-1-yl)phenyl)pyrazin-2-yl)-7-fluoro-3,4-dihydroisoquinolin-1(2H)-one], the results for the half-inhibitory concentration (IC50) (in assay [1]; at Lck (h)) were 0.1 to 5 nM and 6 to 10 nM, respectively.
`C[C@H]1COCCN1c1ccc(-c2cnc(N)c(-c3ccc4c(c3)CCNC4=O)n2)c(F)c1` [Example I-23, (S)-6-(3-amino-6-(2-fluoro-4-(3-methylmorpholino)phenyl)pyrazin-2-yl)-3,4-dihydroisoquinolin-1(2H)-one]: the 50% inhibitory concentration (IC50) in assay [1] lay in the range of 0.1 to 5 nM; on Lck (h), 11 to 20 nM.
The matching figures for `CC(C)[C@H]1CN(c2ccc(-c3cnc(N)c(-c4cc5c(cc4F)C(=O)NCC5)n3)c(F)c2F)CCO1` [Example I-32, (S)-6-(3-amino-6-(2,3-difluoro-4-(2-isopropylmorpholino)phenyl)pyrazin-2-yl)-7-fluoro-3,4-dihydroisoquinolin-1(2H)-one]: 0.1 to 5 nM and 21 to 200 nM.
Taken in the same sequence, the figures for `CN1CCN(c2ccc(-c3cnc(N)c(-c4ccc5c(c4)CCNC5=O)n3)cc2F)CC1` [Example I-4, 6-(3-amino-6-(3-fluoro-4-(4-methylpiperazin-1-yl)phenyl)pyrazin-2-yl)-3,4-dihydroisoquinolin-1(2H)-one] were 0.1 to 5 nM and 6 to 10 nM.
On to `CC(C)[C@H]1CN(c2ccc(-c3cnc(N)c(-c4ccc5c(c4)CCNC5=O)n3)cc2)CCO1` [Example I-8, (S)-6-(3-amino-6-(4-(2-isopropylmorpholino)phenyl)pyrazin-2-yl)-3,4-dihydroisoquinolin-1(2H)-one], for which the 50% inhibitory concentration (IC50) in assay [1] was in the range of 0.1 to 5 nM; on Lck (h) it was 11 to 20 nM. At Lck (h), this compound had a Selectivity of 170.
In the case of `CC(C)[C@@H]1CN(c2ccc(-c3cnc(N)c(-c4ccc5c(c4)CCNC5=O)n3)cc2)CCN1C` [Example I-38, (R)-6-(3-amino-6-(4-(3-isopropyl-4-methylpiperazin-1-yl)phenyl)pyrazin-2-yl)-3,4-dihydroisoquinolin-1(2H)-one], the values for the half-maximal inhibitory concentration (IC50) (in assay [1]; on Lck (h)) were 0.1 to 5 nM and 6 to 10 nM, respectively.
`C[C@@H]1CCCN1c1ccc(-c2cnc(N)c(-c3ccc4c(c3)CCNC4=O)n2)cc1` [Example I-42, (R)-6-(3-amino-6-(4-(2-methylpyrrolidin-1-yl)phenyl)pyrazin-2-yl)-3,4-dihydroisoquinolin-1(2H)-one]: the half-maximal inhibitory concentration (IC50) lay in the range of 0.1 to 5 nM in assay [1] and 11 to 20 nM at Lck (h).
`CN1C[C@@H]2C[C@]2(c2ccc(-c3cnc(N)c(-c4cc5c(cc4F)C(=O)NCC5)n3)cc2)C1` [Example I-47, 6-(3-amino-6-(4-((1S,5R)-3-methyl-3-azabicyclo[3.1.0]hexan-1-yl)phenyl)pyrazin-2-yl)-7-fluoro-3,4-dihydroisoquinolin-1(2H)-one]: the IC50 was 0.1 to 5 nM in assay [1] and 11 to 20 nM at Lck (h).
The matching figures for `C[C@H]1CCCCN1c1ccc(-c2cnc(N)c(-c3ccc4c(c3)CCNC4=O)n2)c(F)c1` [Example I-18, (S)-6-(3-amino-6-(2-fluoro-4-(2-methylpiperidin-1-yl)phenyl)pyrazin-2-yl)-3,4-dihydroisoquinolin-1(2H)-one]: 6 to 10 nM and 21 to 200 nM.
The matching figures for `CC(C)[C@H]1CN(c2ccc(-c3cnc(N)c(-c4ccc5c(c4)CCNC5=O)n3)c(F)c2F)CCO1` [Example I-16, (S)-6-(3-amino-6-(2,3-difluoro-4-(2-isopropylmorpholino)phenyl)pyrazin-2-yl)-3,4-dihydroisoquinolin-1(2H)-one]: 0.1 to 5 nM and 21 to 200 nM.
Regarding `CN1CCN(c2ccc(-c3cnc(N)c(-c4ccc5c(c4)CCNC5=O)n3)cc2)C=N1` [Example I-33, 6-(3-amino-6-(4-(1-methyl-5,6-dihydro-1,2,4-triazin-4(1H)-yl)phenyl)pyrazin-2-yl)-3,4-dihydroisoquinolin-1(2H)-one], the IC50 lay within 0.1 to 5 nM in assay [1] and 11 to 20 nM at Lck (h).
The matching figures for `CC(C)[C@@H]1CN(c2ccc(-c3cnc(N)c(-c4cc5c(cc4F)C(=O)NCC5)n3)c(F)c2F)CCO1` [Example I-31, (R)-6-(3-amino-6-(2,3-difluoro-4-(2-isopropylmorpholino)phenyl)pyrazin-2-yl)-7-fluoro-3,4-dihydroisoquinolin-1(2H)-one]: 0.1 to 5 nM and 21 to 200 nM.
The matching figures for `CC(C)C1CCCN(c2ccc(-c3cnc(N)c(-c4ccc5c(c4)CCNC5=O)n3)c(F)c2)C1` (stereo not shown) [Example I-25, 6-(3-amino-6-(2-fluoro-4-(3-isopropylpiperidin-1-yl)phenyl)pyrazin-2-yl)-3,4-dihydroisoquinolin-1(2H)-one]: 6 to 10 nM and 21 to 200 nM.
Turning to `CC(C)[C@H]1CN(c2ccc(-c3cnc(N)c(-c4ccc5c(c4)CCNC5=O)n3)c(F)c2)CCO1` [Example I-14, (S)-6-(3-amino-6-(2-fluoro-4-(2-isopropylmorpholino)phenyl)pyrazin-2-yl)-3,4-dihydroisoquinolin-1(2H)-one], the IC50 in assay [1] was in the range of 0.1 to 5 nM. Besides, on Lck (h), the 50% inhibitory concentration (IC50) was in the range of 21 to 200 nM and the Selectivity was determined as 1066.
On to `CC(C)[C@H]1CN(c2ccc(-c3cnc(N)c(-c4ccc5c(c4)CCNC5=O)n3)c(F)c2)CCN1C` [Example I-41, (S)-6-(3-amino-6-(2-fluoro-4-(3-isopropyl-4-methylpiperazin-1-yl)phenyl)pyrazin-2-yl)-3,4-dihydroisoquinolin-1(2H)-one], for which the values for the IC50 (in assay [1]; on Lck (h)) were 0.1 to 5 nM and 21 to 200 nM, respectively.
Regarding `CC(C)[C@@H]1CN(c2ccc(-c3cnc(N)c(-c4ccc5c(c4)CCNC5=O)n3)c(F)c2)CCO1` [Example I-13, (R)-6-(3-amino-6-(2-fluoro-4-(2-isopropylmorpholino)phenyl)pyrazin-2-yl)-3,4-dihydroisoquinolin-1(2H)-one], the concentration for half-maximal inhibition (IC50) in assay [1] lay in the range of 0.1 to 5 nM. Besides, at Lck (h), the half-maximal inhibitory concentration (IC50) was in the range of 21 to 200 nM and the Selectivity worked out at 2740.
Take `CN1C[C@@H]2C[C@H]1CN2c1ccc(-c2cnc(N)c(-c3ccc4c(c3)CCNC4=O)n2)cc1` [Example I-26, 6-(3-amino-6-(4-((1S,4S)-5-methyl-2,5-diazabicyclo[2.2.1]heptan-2-yl)phenyl)pyrazin-2-yl)-3,4-dihydroisoquinolin-1(2H)-one]: the figures for the half-maximal inhibitory concentration (IC50) (in assay [1]; on Lck (h)) were 0.1 to 5 nM and 11 to 20 nM, respectively.
The matching figures for `CN(C)C1CCN(c2ccc(-c3cnc(N)c(-c4ccc5c(c4)CCNC5=O)n3)c(F)c2F)C1` (stereo not shown) [Example I-21, 6-(3-amino-6-(4-(3-(dimethylamino)pyrrolidin-1-yl)-2,3-difluorophenyl)pyrazin-2-yl)-3,4-dihydroisoquinolin-1(2H)-one]: 0.1 to 5 nM and 11 to 20 nM.
Turning to `CC(C)C1CCCN(c2ccc(-c3cnc(N)c(-c4ccc5c(c4)CCNC5=O)n3)cc2)C1` (stereo not shown) [Example I-24, 6-(3-amino-6-(4-(3-isopropylpiperidin-1-yl)phenyl)pyrazin-2-yl)-3,4-dihydroisoquinolin-1(2H)-one], the concentration for half-maximal inhibition (IC50) in assay [1] was 0.1 to 5 nM; at Lck (h), 21 to 200 nM.
For the compound `C[C@@H]1CCCN1c1ccc(-c2cnc(N)c(-c3ccc4c(c3)CCNC4=O)n2)c(F)c1` [Example I-43, (R)-6-(3-amino-6-(2-fluoro-4-(2-methylpyrrolidin-1-yl)phenyl)pyrazin-2-yl)-3,4-dihydroisoquinolin-1(2H)-one], the results for the half-maximal inhibitory concentration (IC50) (in assay [1]; at Lck (h)) were 6 to 10 nM and 21 to 200 nM, respectively.

Values taken from patent publication US20240317723A1, “SUBSTITUTED AMINO AZA-HETEROARYL COMPOUNDS AS INHIBITORS OF THE HAEMATOPOIETIC PROGENITOR KINASE 1 (HPK1)” (priority 2021, published 2024).
